pIC50: −log10 of the molar value.
Key:
Format in all cases: cell-based, human
033 T PDX cells = assay: In vitro drug sensitivity assay (ATPlite cell viability, 6 days, sphere culture); details: for pIC50: Homo sapiens, primary culture in serum-free sphere conditions; for effect on 033 T cell proliferation (in words): in vitro drug screen
Description: (§1) Primary cultures of PDX cells in the serum-free sphere culture conditions were seeded in 384-well plates, at 500 cells per well. Two hours after plating, cells were treated with a drug library in three-fold and 10-point serial dilutions (n = 3, for each condition). Cells were incubated for 6 days at 37 °C, in a 5% CO2 humidified incubator, and the cell viability was analyzed using an adenosine triphosphate monitoring system based on firefly luciferase (ATPlite 1step; PerkinElmer, Waltham, MA, USA). […] The drugs were stored and diluted according to the manufacturer’s instructions. The tested concentrations for each drug were empirically derived, in order to investigate a clinically relevant spectrum of drug activities. IC50 values were calculated as an average of triplicate experiments using S+ Chip Analyzer (Samsung Electro-Mechanics Company, Ltd., Suwon, Korea). In order to investigate the effects of the treatment with targeted agents, signal transduction assays were performed using primarily cultured NSCLC PDX cells, which were maintained overnight in serum-free sphere culture conditions, without growth factors, incubated for 1 h with each inhibitor, and pulsed with original culture medium supplemented with bFGF/EGF/NRG/IGF for 15 min.

033 T cells [1] = assay: Tumor sphere formation in 033 T cell cultures
Description: (§2) Xenograft tumor specimens were dissociated into single cells according to previously published protocol. Dissociated cells were cultured in Neurobasal medium-A, supplemented with N2 (×1/2; Life Technologies, Carlsbad, CA, USA), B27 (×1/2; GIBCO), basic fibroblast growth factor (bFGF; 25 ng/mL; R&D Systems, Minneapolis, MN, USA), EGF (25 ng/mL; R&D Systems, Minneapolis, MN, USA), neuregulin 1 (NRG; 10 ng/mL; R&D Systems, Minneapolis, MN, USA), and insulin-like growth factor 1 (IGF1; 100 ng/mL; R&D Systems, Minneapolis, MN, USA). Growth factors were supplemented every 3 days. When spheres appeared in the suspension culture, they were dissociated using StemPro Accutase (Life Technologies, Carlsbad, CA, USA), and reseeded in the suspension culture medium. Cells were grown in complete medium and treated with inhibitors 1 day after seeding. Five days later, the surviving cells were quantified by WST-1 staining (Roche Genentech, San Francisco, CA, USA).

033 T cells [2] = assay: Cell proliferation time course of 033 T cells (WST-1); details: from day 5 onward
Description: as §2

phosphorylation of MET = assay: Signal transduction assay, western blot; details: 033 T cells
Description: as §1

[3] = test system: phosphorylation of ERK1/2; assay: Signal transduction assay, western blot; details: 033 T cells
Description: (§3) Primary cultures of PDX cells in the serum-free sphere culture conditions were seeded in 384-well plates, at 500 cells per well. Two hours after plating, cells were treated with a drug library in three-fold and 10-point serial dilutions (n = 3, for each condition). Cells were incubated for 6 days at 37 °C, in a 5% CO2 humidified incubator, and the cell viability was analyzed using an adenosine triphosphate monitoring system based on firefly luciferase (ATPlite 1step; PerkinElmer, Waltham, MA, USA). The drug library was composed of 17 targeted agents that were included in the clinical guidelines or current clinical trials for the treatment of NSCLC (gefitinib, erlotinib, lapatinib, afatinib, neratinib, caneratinib, dacomitinib, infigratinib, vandetanib, sunitinib, imatinib, CI-1040, vemurafenib, palbociclib, crizotinib, sonidegib, buparlisib; all purchased from Selleckchem, Houston, TX, USA). The drugs were stored and diluted according to the manufacturer’s instructions. The tested concentrations for each drug were empirically derived, in order to investigate a clinically relevant spectrum of drug activities. IC50 values were calculated as an average of triplicate experiments using S+ Chip Analyzer (Samsung Electro-Mechanics Company, Ltd., Suwon, Korea). […]

phosphorylation of STAT3 = assay: Signal transduction assay, western blot; details: 033 T cells
Description: as §3

[4] = resistant if IC50 > 1000 nmol/L

In the case of `CCOc1cc2ncc(C#N)c(Nc3ccc(OCc4ccccn4)c(Cl)c3)c2cc1NC(=O)/C=C/CN(C)C` [neratinib], the pIC50 (033 T PDX cells; […]) was 6.88 and the “effect on 033 T cell proliferation (in words)” value (from here on “effect”) (033 T PDX cells) was “marked inhibitory effects”.
With `COc1cc2ncnc(Nc3ccc(F)c(Cl)c3)c2cc1OCCCN1CCOCC1` [gefitinib] the “effect” value (033 T PDX cells) was “marked inhibitory effects”.
`CN(C)C/C=C/C(=O)Nc1cc2c(Nc3ccc(F)c(Cl)c3)ncnc2cc1O[C@H]1CCOC1` [afatinib] gave a pIC50 (033 T PDX cells; [4]) of 6.01.
`Nc1cc(C(F)(F)F)c(-c2cc(N3CCOCC3)nc(N3CCOCC3)n2)cn1` [buparlisib] was tested, and the pIC50 (033 T PDX cells; [4]) was 6.29.
Work on `C#Cc1cccc(Nc2ncnc3cc(OCCOC)c(OCCOC)cc23)c1` [erlotinib] yielded a pIC50 (033 T PDX cells; […]) of 6.08.
With `C[C@@H](Oc1cc(-c2cnn(C3CCNCC3)c2)cnc1N)c1c(Cl)ccc(F)c1Cl` [crizotinib] the pIC50 (033 T PDX cells; [4]) was 6.16, the tumor sphere formation (033 T cells [1]) was “impaired tumor sphere formation” and the cell proliferation (033 T cells [2]) was “significantly inhibited cell proliferation”. The “phosphorylation of MET” value (phosphorylation of MET) was “completely abolishing”, the “phosphorylation of ERK1/2” value [3] was “completely abolishing” and the “phosphorylation of STAT3” value (phosphorylation of STAT3) was “completely abolishing”.
In the case of `CS(=O)(=O)CCNCc1ccc(-c2ccc3ncnc(Nc4ccc(OCc5cccc(F)c5)c(Cl)c4)c3c2)o1` [lapatinib], the pIC50 (033 T PDX cells; [4]) was 5.81.
In the case of `C=CC(=O)Nc1cc2c(Nc3ccc(F)c(Cl)c3)ncnc2cc1OCCCN1CCOCC1` [canertinib], the pIC50 (033 T PDX cells; [4]) was 7.10 and the “effect” value (033 T PDX cells) was “effective”.
